Measured values published in US9410939B2, “Methods for predicting mammalian embryo viability” (Cambridge Enterprise Limited, priority 2011, dated 2016).
Marks after values point to notes of the source that are not given here.

Tests used:
Type in all cases: cell-based
mouse zygotes = experiment: Immunostaining of microtubules and actomyosin in treated zygotes
Protocol: To examine a correlation between cytoplasmic movements and developmental potential of the embryos, 10 μl of capacitated sperm suspension was added to eggs surrounded by cumulus cells and then gametes were co-incubated for 2 hrs. In experiments testing specificity of inhibitors or involving live imaging of actin and myosin, prior to fertilization eggs were treated shortly with acidic Tyrode's solution (pH=2.5) to remove zonas, then were mixed with approximately 1 μl of capacitated sperm suspension and incubated together for 30 min. In both cases fertilization was performed in fertilization medium supplemented with 4 mg/ml BSA^45. Embryos at 2-cell stage were transfer to oviducts of recipient F1 females mated with vasectomised males on 0.5 dpc. They were dissected on 6.5 dpc or 19.5 dpc.
Embryos were fixed in 4% PFA and permeabilised as described before^41. Embryos were scanned using an inverted confocal microscope (Zeiss LSM 510 Meta).
In more detail, embryos were fixed in 4% PFA (30 min, RT or 4° C. overnight), permeabilised with 0.2-0.5% Triton-X100 (30 min, RT) and blocked with 3% BSA or 10% FCS. Subsequently, they were stained with following antibodies and dyes: […]

fertilized mouse eggs [1] = experiment: PIV analysis of cytoplasmic movements (speed-peaks, after-movements, basal speed) in inhibitor-treated zygotes; details: for Mean amplitude of after-movements +/- s.d. / Mean amplitude of speed-peaks +/- s.d.: inhibitor-treated zygotes; for decrease in basal speed: vs control zygotes
Protocol: (§1) F1 (C57B16×CBA) mouse females were superovulated and oocytes and zygotes recovered as described previously^44. Parthenogenetic activation was performed by incubating eggs for 4 hrs in M2 medium without Ca^2+/Mg^2+ supplemented with 10 mM SrCl2. Germinal vesicle (GV) oocytes were isolated from ovaries to M2 medium supplemented with 150 μg/ml dibutyryl cyclic AMP (dbcAMP). Epididymal sperm was isolated from F1 males and capacitated in 0.5 ml of fertilization medium with 4 mg/ml BSA^45. Embryos were imaged in KSOM medium as described previously^44. In some experiments prior to imaging embryos were pre-incubated for 20 min with 30 μM BAPTA-AM (to chelate Ca^2+), 5 μg/ml nocodazole (to depolimerize microtubules), 2 μg/ml cytochalasin D (to depolimerize F-actin), 10 μM taxol (to stabilize microtubules) or 100 nM jasplakinolide (to stabilize F-actin) and then transferred to pure KSOM (BAPTA-treated embryos) or to KSOM containing the respective drug (rest of the treated embryos). Embryos treated with ML-7 (to inhibit myosin light chain kinase (MLCK) and therefore myosin II activation^46) were pre-incubated with 25 μM ML-7 for 20 mins and then imaged in a dish containing KSOM with 25 μM ML-7 without a mineral oil overlay which would have absorbed ML-7.
(§2) In most experiments zygotes were imaged in a single plane under an inverted confocal microscope (Zeiss LSM 510 Meta) at 37.5° C. and 5% CO2. DIC images were captured every 10 s using a 633 nm HeNe laser. To measure free Ca^2+ ion concentration, embryos were pre-incubated for 20 min in 5 μM FuraRed-AM (Invitrogen) and FuraRed and DIC images were obtained simultaneously with a 488 nm argon laser. In experiments in which correlations between cytoplasmic movements and developmental potential of the embryos were examined zygotes were imaged in a single plane in transmitted light under standard non-confocal microscopes (Zeiss Axiovert or Deltavision) every 10 s for 2.5 hrs. In experiments in which cytoplasmic movements in the cortex and central parts of zygotes were compared embryos were imaged on the Deltavision microscope in 11 planes every 6 μm, every 10 s for 3 hrs. Intensity of FuraRed fluorescence was measured using ImageJ software. Images were analyzed using custom written software in MATLAB (The Mathworks Inc., Natick, Mass., USA) using algorithms adapted from MatPIV v1.6.1^47. The algorithm was based on that used in PIV, a standard analysis technique used extensively in fluid dynamics^21-24 that involves cross-correlating image sub-regions between sequential pairs of images. In the PIV analysis each image was divided into square interrogation regions and the cross-correlation coefficient distribution was calculated within a larger region in the next image in the sequence. The peak of the cross-correlation coefficient distribution gave the most likely location in the second image of the material in the interrogation region in the first image. This was then used to calculate the displacement vector over the time between images (FIG. 1A). As the displacement of the pattern of contrast of an area of pixels is being measured over many pixels it is possible to accurately measure sub-pixel movements with this technique^22, 24, 48.
DIC images of fertilized eggs were analyzed using custom written software in MATLAB (The Mathworks Inc., Natick, Mass., USA) using algorithms adapted from MatPIV v1.6.150. The algorithm was based on that used in PIV, a standard analysis technique that involves the use of pattern matching techniques based on cross-correlating sub-regions between sequential pairs of images (see Methods in the main text and FIG. 1a). To calculate a displacement for each analysed interrogation region two subsequent PIV iterations were used. First, the displacement was calculated for a larger interrogation area and then it was used as an estimate of where to centre the search area for the next iteration with a smaller interrogation region. […]

[2] = tested on: in vivo fertilized mouse eggs; experiment: Completion of meiosis (2PB extrusion) under Ca2+ chelation and cytoskeleton inhibitors
Protocol: as §1, §2

mouse eggs [3] = experiment: Cytoplasmic movements in eggs injected with heat-inactivated sperm heads (ICSI) and activated with SrCl2; details: for Mean amplitude of after-movements +/- s.d. / Mean amplitude of speed-peaks +/- s.d.: ICSI with the inactivated sperm and SrCl2 activation
Protocol: as §1, §2
ICSI was carried out as previously described^49 using Leica micromanipulators and Leica inverted microscope. In some experiments heat-inactivated sperm (30 min in 60° C.) was used instead of freshly isolated sperm. The sperm suspension was mixed with M2 medium containing 10% polyvinylpyrrolidone (PVP, Mr=360 kDa). Sperm were delivered into the oocytes' cytosol using a piezo micropipette-driving unit (IntraCel PMAS-CT150, PrimeTech, Japan).

mouse eggs [4] = experiment: Cytoplasmic movements and Ca2+ transients in eggs parthenogenetically activated with SrCl2
Protocol: as §1
as §2, with “The peak of the cross-correlation coefficient distribution gave the most likely location in the second image of the material in the interrogation region in the first image. This was then used to calculate the displacement vector over the time between images (FIG. 1A).” left out
DIC images of fertilized eggs were analyzed using custom written software in MATLAB (The Mathworks Inc., Natick, Mass., USA) using algorithms adapted from MatPIV v1.6.150. […] To calculate a displacement for each analysed interrogation region two subsequent PIV iterations were used. First, the displacement was calculated for a larger interrogation area and then it was used as an estimate of where to centre the search area for the next iteration with a smaller interrogation region. […]

fertilized mouse eggs [5] = experiment: Formation and maintenance of the fertilization cone (FC) in inhibitor-treated zygotes
Protocol: as §1, §2

[6] = treated zygotes, control zygotes 9.0 +/- 1.9
[7] = Stage 1 prolonged, activation with SrCl2

Structure (SMILES)	effect on speed-peaks (fertilized mouse eggs [1])	Mean basal cytoplasmic speed +/- s.d. (fertilized mouse eggs [1]; [6])	Zygotes that extruded 2PB (%) [2]	Zygotes that failed to extrude 2PB (%) [2]	effect on formation and/or maintenance of the FCs (fertilized mouse eggs [5])	Mean amplitude of after-movements +/- s.d. (fertilized mouse eggs [1]; Stage 1) [nm/s]	Mean amplitude of speed-peaks +/- s.d. (fertilized mouse eggs [1]; Stage 1)	Mean amplitude of after-movements +/- s.d. (fertilized mouse eggs [1]; Stage 2)	Mean amplitude of speed-peaks +/- s.d. (fertilized mouse eggs [1]; Stage 2)	Mean amplitude of after-movements +/- s.d. (fertilized mouse eggs [1]; Stage 3)	Mean amplitude of speed-peaks +/- s.d. (fertilized mouse eggs [1]; Stage 3) [nm/s]	also measured
CC(=O)OCOC(=O)CN(CC(=O)OCOC(C)=O)c1ccccc1OCCOc1ccccc1N(CC(=O)OCOC(C)=O)CC(=O)OCOC(C)=O [BAPTA, BAPTA-AM]	suppressed high amplitude speed-peaks	15.3 +/− 3.3* nm/s	(66.7) %	(33.3) %	–	–	–	–	–	–	–	effect on cytoskeleton by staining (mouse zygotes): disrupted microtubules; elevation of mean basal cytoplasmic speed (fertilized mouse eggs [1]; more than controls, 21 fertilized eggs): 1.7 fold
[Cl-].[Cl-].[Sr+2] [SrCl2]	–	–	–	–	–	–	–	–	–	–	–	lag of speed-peaks and FC pulsations after peaks of Ca2+ transients (mouse eggs [3]): 10 to 30 s; Ca2+ transients accompanied by speed-peaks (mouse eggs [3]; 48/79 transients, Stage 2, FCs present, n=25): 60.8%; Mean amplitude of after-movements +/- s.d. (mouse eggs [3]; Stage 1): 7.9 ± 3.0 nm/s; Mean amplitude of speed-peaks +/- s.d. (mouse eggs [3]; Stage 1): 8.8 +/− 8.8^|| nm/s; Mean amplitude of after-movements +/- s.d. (mouse eggs [3]; Stage 2): 10.1 +/− 3.5^#,‡‡ nm/s; Mean amplitude of speed-peaks +/- s.d. (mouse eggs [3]; Stage 2): 8.6 +/− 5.4^# nm/s; Mean amplitude of after-movements +/- s.d. (mouse eggs [3]; Stage 3): 13.0 ± 7.0 nm/s; Mean amplitude of speed-peaks +/- s.d. (mouse eggs [3]; Stage 3): 7.1 +/− 4.3^# nm/s; delay of speed peaks with respect to the onset of the Ca2+ transient (mouse eggs [4]): 10 to 30 s; Ca2+ transients accompanied by speed peaks (mouse eggs [4]; 133/444 transients, n=47 eggs): 30%; Ca2+ transients with after-movements present (mouse eggs [4]; 341/444 transients): 76.8%; Mean amplitude of after-movements +/- s.d. (mouse eggs [4]; [7]): 7.7 +/− 2.9^#,** nm/s; Mean amplitude of speed-peaks +/- s.d. (mouse eggs [4]; [7]): 7.4 +/− 4.0^#,||,¶ nm/s
COC(=O)Nc1nc2ccc(C(=O)c3cccs3)cc2[nH]1 [Nocodazole, nocodazole]	neither nocodazole-induced depolymerisation nor taxol-induced stabilisation of microtubules inhibited speed-peaks	11.0 +/− 1.5* nm/s	(41.7) %	(58.3) %	had no effect upon either formation and/or maintenance of the FCs	11.1 ± 3.9	20.6 ± 11.2 nm/s	16.6 +/− 6.8^¶ nm/s	35.2 +/− 19.3^§ nm/s	21.5 +/− 6.7^|| nm/s	10.4 ± 8.5	–
CC(=O)O[C@H]1C(=O)[C@@]2(C)[C@H]([C@H](OC(=O)c3ccccc3)[C@]3(O)C[C@H](OC(=O)[C@H](O)[C@@H](NC(=O)c4ccccc4)c4ccccc4)C(C)=C1C3(C)C)[C@]1(OC(C)=O)CO[C@@H]1C[C@@H]2O [Taxol, taxol]	neither nocodazole-induced depolymerisation nor taxol-induced stabilisation of microtubules inhibited speed-peaks	7.7 +/− 1.7^§ nm/s	–	(100) %	had no effect upon either formation and/or maintenance of the FCs	7.9 ± 4.3	18.0 +/− 5.0^¶ nm/s	11.1 ± 5.3 nm/s	29.9 +/− 21.0^¶ nm/s	14.3 +/− 5.8^¶ nm/s	11.5 ± 6.5	–
C/C1=C\[C@H](C)C[C@H](C)OC(=O)C[C@H](c2ccc(O)cc2)NC(=O)[C@@H](Cc2c(Br)[nH]c3ccccc23)N(C)C(=O)[C@H](C)NC(=O)[C@@H](C)C1 [Jasplakinolide, jasplakinolide]	amplitudes were significantly lower than in controls	3.0 +/− 0.4* nm/s	–	(100) %	still permitted formation and/or maintenance of FCs	5.2 ± 2.1	20.9 ± 10.1 nm/s	4.2 +/− 1.9^|| nm/s	14.5 +/− 8.3^|| nm/s	3.8 +/− 2.8^|| nm/s	10.8 ± 7.6	effect on cytoskeleton by staining (mouse zygotes): formation of a thicker cortical layer of actin; decrease in basal speed (fertilized mouse eggs [1]): ~3 fold
C=C1[C@@H](C)[C@H]2[C@H](Cc3ccccc3)NC(=O)[C@]23[C@H](OC(C)=O)/C=C/[C@@](C)(O)C(=O)[C@@H](C)C/C=C/[C@H]3[C@@H]1O [Cytochalasin D, cytochalasin D]	dramatically abolished speed-peaks	3.1 +/− 0.6* nm/s	–	(100) %	–	–	–	–	–	–	–	zygotes in which FCs did not form (fertilized mouse eggs [5]; 20/21 zygotes): 95%; zygotes in which unfocused, low-amplitude speed-peaks were recorded (fertilized mouse eggs [1]; 2 out of 21 analyzed zygotes): 9.5%; decrease in basal speed (fertilized mouse eggs [1]): ~3 fold
O=S(=O)(c1cccc2c(I)cccc12)N1CCCNCC1 [ML-7]	–	–	(69.2) %	(30.8) %	–	–	–	–	–	–	–	embryos in which FCs were present (fertilized mouse eggs [5]; 10/17 embryos): 58.8%; zygotes in which cytoplasmic speed oscillations were blocked (fertilized mouse eggs [1]; 16/17 zygotes): 94.1%; Mean basal cytoplasmic speed +/- s.d. (fertilized mouse eggs [1]; A - mean basal velocity before M-phase/interphase transition): A. 5.1 +/− 1.3*^,‡ nm/s; Mean basal cytoplasmic speed +/- s.d. (fertilized mouse eggs [1]; B - mean basal velocity after M-phase/interphase transition): B. 8.3 +/− 1.1^†,‡ nm/s
